# Tested on: 931267-113-T-J1-PDC KRAS spheroid with HUVEC/MSC, viability
# Assay: Anticancer human tumor 931267-113-T-J1-PDC patient-derived colon adenocarcinoma cell line growth inhibition [KRAS2]
# Settings: for IC50: curve of first compound; for viability, T/C: stronger effect = lower value
# Outline: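 KRAS-mutant tumor cells were grown as spheroids with HUVEC endothelial cells and human MSCs as stroma. Targeted agents were tested alone and with KRAS pathway inhibitors. Doses started at or near clinical Cmax, or 10 microM, descending half-log.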
# [1] = second compound 0.1 µM, first compound 0.0316 µM
# [2] = second compound 0.1 µM, first compound 0.1 µM
# [3] = second compound 0.316 µM, first compound 0.0316 µM
# [4] = second compound 0.316 µM, first compound 0.1 µM
# [5] = second compound 1 µM, first compound 0.0316 µM
# [6] = second compound 1 µM, first compound 0.1 µM
# [7] = second compound 3.16 µM, first compound 0.0316 µM
# [8] = second compound 3.16 µM, first compound 0.1 µM
# [9] = second compound 10 µM, first compound 0.0316 µM
# [10] = second compound 10 µM, first compound 0.1 µM
# [11] = second compound 0.1 µM, first compound 0.316 µM
# [12] = second compound 0.1 µM, first compound 1 µM
# [13] = second compound 0.1 µM, first compound 3.16 µM
# [14] = second compound 0.1 µM, first compound 10 µM
# [15] = second compound 0.316 µM, first compound 0.316 µM
# [16] = second compound 0.316 µM, first compound 1 µM
# [17] = second compound 0.316 µM, first compound 3.16 µM
# [18] = second compound 0.316 µM, first compound 10 µM
# [19] = second compound 1 µM, first compound 0.316 µM
# [20] = second compound 1 µM, first compound 1 µM
# [21] = second compound 1 µM, first compound 3.16 µM
# [22] = second compound 1 µM, first compound 10 µM
# [23] = second compound 3.16 µM, first compound 0.316 µM
# [24] = second compound 3.16 µM, first compound 1 µM
# [25] = second compound 3.16 µM, first compound 3.16 µM
# [26] = second compound 3.16 µM, first compound 10 µM
# [27] = second compound 10 µM, first compound 0.316 µM
# [28] = second compound 10 µM, first compound 1 µM
# [29] = second compound 10 µM, first compound 3.16 µM
# [30] = second compound 10 µM, first compound 10 µM
# 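Further: compound exposure lasted 7 days before the readout.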
# 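Wherever viability, T/C is given: 100% = DMSO vehicle control viability.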
SMILES,IC50 (second compound 0.1 µM) [nM],IC50 (second compound 0.316 µM) [nM],IC50 (second compound 1 µM) [nM],IC50 (second compound 3.16 µM) [nM],IC50 (second compound 10 µM) [nM],"viability, T/C [1] [%]","viability, T/C [2] [%]","viability, T/C [3] [%]","viability, T/C [4] [%]","viability, T/C [5] [%]","viability, T/C [6] [%]","viability, T/C [7] [%]","viability, T/C [8] [%]","viability, T/C [9] [%]","viability, T/C [10] [%]","viability, T/C [11] [%]","viability, T/C [12] [%]","viability, T/C [13] [%]","viability, T/C [14] [%]","viability, T/C [15] [%]",also measured
CN(C)C/C=C/C(=O)Nc1cc2c(Nc3ccc(F)c(Cl)c3)ncnc2cc1O[C@H]1CCOC1 + CC1OCC2(CCN(c3cnc(Sc4ccnc(N)c4Cl)c(N)n3)CC2)C1N,> 100,> 100,> 100,< 0.316,> 100,84.6,69,67.4,80.4,93.5,90.8,57.7,49.4,97.1,93.7,,,,,,"viability, T/C (second compound 0.1 µM, first compound 0.000316 µM): 80.6%; viability, T/C (second compound 0.1 µM, first compound 0.001 µM): 77.1%; viability, T/C (second compound 0.1 µM, first compound 0.00316 µM): 58.5%; viability, T/C (second compound 0.1 µM, first compound 0.01 µM): 73.5%; viability, T/C (second compound 0.316 µM, first compound 0.000316 µM): 66.8%; viability, T/C (second compound 0.316 µM, first compound 0.001 µM): 70%; viability, T/C (second compound 0.316 µM, first compound 0.00316 µM): 65.5%; viability, T/C (second compound 0.316 µM, first compound 0.01 µM): 62.6%; viability, T/C (second compound 1 µM, first compound 0.000316 µM): 84.4%; viability, T/C (second compound 1 µM, first compound 0.001 µM): 77.4%; viability, T/C (second compound 1 µM, first compound 0.00316 µM): 77%; viability, T/C (second compound 1 µM, first compound 0.01 µM): 71.4%; viability, T/C (second compound 3.16 µM, first compound 0.000316 µM): 34.6%; viability, T/C (second compound 3.16 µM, first compound 0.001 µM): 48.8%; viability, T/C (second compound 3.16 µM, first compound 0.00316 µM): 49.1%; viability, T/C (second compound 3.16 µM, first compound 0.01 µM): 49.6%; viability, T/C (second compound 10 µM, first compound 0.000316 µM): 90.2%; viability, T/C (second compound 10 µM, first compound 0.001 µM): 71.6%; viability, T/C (second compound 10 µM, first compound 0.00316 µM): 68.4%; viability, T/C (second compound 10 µM, first compound 0.01 µM): 71.5%"
COC(=O)c1ccc2c(C(=Nc3ccc(N(C)C(=O)CN4CCN(C)CC4)cc3)c3ccccc3)c(O)[nH]c2c1 + CC1OCC2(CCN(c3cnc(Sc4ccnc(N)c4Cl)c(N)n3)CC2)C1N,700,251,< 31.6,< 31.6,< 31.6,69.4,68.6,63.5,67.5,51.2,43.6,48.1,37,37.6,32.4,57.1,44.4,0.37,0.35,38.7,"viability, T/C [16]: 34.3%; viability, T/C [17]: 0.32%; viability, T/C [18]: 0.28%; viability, T/C [19]: 44%; viability, T/C [20]: 4.05%; viability, T/C [21]: 0.33%; viability, T/C [22]: 0.32%; viability, T/C [23]: 25%; viability, T/C [24]: 2.45%; viability, T/C [25]: 0.48%; viability, T/C [26]: 0.38%; viability, T/C [27]: 13.2%; viability, T/C [28]: 0.77%; viability, T/C [29]: 0.35%; viability, T/C [30]: 0.45%"
O=C(c1cc(Cc2n[nH]c(=O)c3ccccc23)ccc1F)N1CCN(C(=O)C2CC2)CC1 + CC1OCC2(CCN(c3cnc(Sc4ccnc(N)c4Cl)c(N)n3)CC2)C1N,> 10000,> 10000,> 10000,> 10000,3160,72.8,70.8,64.2,72.7,86.6,89.5,56.6,48,59.9,60.2,72.9,68.4,81.5,73.5,59.1,"viability, T/C [16]: 66.9%; viability, T/C [17]: 54.8%; viability, T/C [18]: 62.4%; viability, T/C [19]: 89.1%; viability, T/C [20]: 86%; viability, T/C [21]: 73.3%; viability, T/C [22]: 89.1%; viability, T/C [23]: 52.6%; viability, T/C [24]: 64.6%; viability, T/C [25]: 56.4%; viability, T/C [26]: 50.8%; viability, T/C [27]: 99%; viability, T/C [28]: 46%; viability, T/C [29]: 63.9%; viability, T/C [30]: 51.9%"
